These are literature values, as cited in article PMC8042970, “A phase 1 study of dalpiciclib, a cyclin-dependent kinase 4/6 inhibitor in Chinese patients with advanced breast cancer” (Biomarker Research, 2021).

As a reminder, the IC50 is the concentration that inhibits the measured activity by half.

Read-outs that look alike come from different tables or passages of the source.

In data set [1] the test system is HR-positive and HER2-negative metastatic breast cancer.
For another data set, the system named is CDK4. The note with it: ref product label or FDA review.
For another data set, the system named is CDK6. As to conditions: ref product label or FDA review.
Details of data set [2]: method as in product label or FDA review. As to conditions: ref product label or FDA review.
Details of data set [3]: method as in product label or FDA review. As to conditions: ref product label or FDA review. The source holds these as a separate data set.
On the set-up of data set [4]: method as in product label or FDA review. As to conditions: ref product label or FDA review. The source holds these as a separate data set.
Setting [5] is: single agent abemaciclib, heavily pretreated population.
The mark [6] stands for this setting: single agent palbociclib, moderately pretreated population.
[7] abbreviates: phase 1 dose-escalation study of palbociclib.

On to `CCN1CCN(Cc2ccc(Nc3ncc(F)c(-c4cc(F)c5nc(C)n(C(C)C)c5c4)n3)nc2)CC1` [abemaciclib], for which, in data set [1] (setting [5]), the DCR is 66.7% and the “Median PFS” value was 5.9 months. In addition, in the data set with CDK4, the IC50 is […]. Further, the IC50 in the data set on CDK6 was 9.9 nM. Besides, in data set [2], the “Excretion, Feces” value was 81% and the “Excretion, Urine” value is 3%. The Metabolism result in data set [3] is on record as “Liver (CYP3A4)”.

For `CC(=O)c1c(C)c2cnc(Nc3ccc(N4CCNCC4)cn3)nc2n(C2CCCC2)c1=O` [palbociclib], in data set [1] (setting [6]), the DCR is 63.8% and the “Median PFS” value is recorded as […]. Besides, in the data set on CDK4, the IC50 is […]. The AUCss in data set [4] (at recommended dose) was 1633 to 1982 ng·h/mL. Further, in data set [4], the Tmax is given as 6−12 h, the Volume of distribution was 2583 L and the t1/2 is on record as 29 h. Also, the IC50 in the data set with CDK6 is […]. Moreover, under setting [7], the “MTD and recommended phase 2 dose” value was 125 mg; the “Patients with DLT” value is reported as 12%. For the same compound, where the note is “phase 1 trial of palbociclib”, the “Patients with QTc value of > 500 ms” value was “none” and the “Patients with maximum increase from baseline QTc of < 30 ms” value was 26 of 41.

Regarding `CN(C)C(=O)c1cc2cnc(Nc3ccc(N4CCNCC4)cn3)nc2n1C1CCCC1` [ribociclib], the IC50 in the data set on CDK4 was […]. For the same compound, the “Cmin,ss” value in data set [4] (at recommended dose) is 631 ng/mL. Moreover, in data set [4], the Mild hepatic/renal impairment result is listed as “No effect on exposure”, the Tmax is 1−4 h and the Volume of distribution was 1090 L. For the same compound, in data set [2], the “Excretion, Feces” value was 69% and the “Excretion, Urine” value is listed as 23%. Moreover, the Metabolism entry in data set [3] was “Liver (CYP3A4)”. Where the note is “phase 1 study of ribociclib”, the “DLT: QTcF prolongation” value was 1, the “DLT: increased creatinine” value is 1, the “DLT: mucositis” value was 1 and the “DLT: neutropenia” value is 3 cases. Besides, for the setting “phase 1 study of ribociclib”, the “DLT: pulmonary embolism” value is 1 and the “DLT: thrombocytopenia” value is 2 cases. Moreover, the “Patients with DLTs” value (phase 1 study of ribociclib, first treatment cycle) is 13%. Further, where the note is “ribociclib”, the “Patients with QTcF prolongation” value is given as 6–9%.
